Reference: ChEMBL document CHEMBL3352148, “Docking based virtual screening and molecular dynamics study to identify potential monoacylglycerol lipase inhibitors” (Bioorg Med Chem Lett, 2014)

Key:
[1] = target: T1, Monoglyceride lipase (Homo sapiens, UniProt Q99685); experiment: Inhibition of human MAGL using 4-Nitrophenylacetate substrate incubated for 15 mins
T1 sequence (Q99685 whole entry): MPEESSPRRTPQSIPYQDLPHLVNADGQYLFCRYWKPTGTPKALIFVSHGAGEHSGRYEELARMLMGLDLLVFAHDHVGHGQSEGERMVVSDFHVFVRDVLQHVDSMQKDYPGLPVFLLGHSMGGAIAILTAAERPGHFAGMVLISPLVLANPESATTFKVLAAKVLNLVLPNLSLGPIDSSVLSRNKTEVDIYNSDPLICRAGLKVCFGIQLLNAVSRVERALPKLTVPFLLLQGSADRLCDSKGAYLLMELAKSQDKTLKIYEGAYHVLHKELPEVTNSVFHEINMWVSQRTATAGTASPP

[2] = Retention time of the compound by UPLC-MS/MS method; format: physicochemical
[3] = Predicted human oral absorption (QikProp); conditions: in silico

Row | SMILES | IC50 [1] [µM] | Retention_time [2] [min] | Fa [3] [%]
1 | O=C(COc1ccc2ccccc2c1)Nn1ccc2c(nnc3c(-c4ccc(F)cc4)cnn32)c1=O | > 100 | 1.29 | 100
2 | O=C(NCc1ccc2c(c1)OCO2)[C@H]1CC(=O)N(c2ccc(OCc3ccccc3Cl)cc2)C1 |  |  | 100
3 | COc1ccc2cc(-c3nc4sc(C(=O)Nc5ccccc5OC)cc4c(=O)[nH]3)c(=O)oc2c1 |  |  | 80.4
4 | Cc1cc(C)cc(NC(=O)[C@@H]2CC(=O)N(CCc3c[nH]c4ccc(F)cc34)C2)c1 |  | 1.55 | 100
5 | C[C@H]1CCCC[C@@H]1NC(=O)CC[C@@H]1NC(=O)N(CCc2c[nH]c3ccc(F)cc23)C1=O | > 100 | 2.26 | 90.7
6 | COc1nn(-c2ccc(NC(=O)OCc3ccccc3)c(C)c2)c(=O)o1 | 0.02 |  | 
7 | O=C(NCc1ccc2c(c1)OCO2)[C@@H]1CC(=O)N(c2ccc(OCc3ccccc3Cl)cc2)C1 |  | 2.01 | 
8 | O=C(Cn1nnc2ccccc21)Nc1ccc(-c2nc3ccccc3s2)cc1 |  | 1.72 | 100
9 | Cc1ccc(N2C[C@H](C(=O)NCc3n[nH]c(=O)c4ccccc34)CC2=O)cc1C |  | 1.68 | 77.9
